Source: the supplement of paper PMC10477900
Counter-ions that a name gives are not always drawn.

How the values were obtained:
HCT116 [1] = test: viability inhibition vs untreated; higher = more cytotoxic; details: 72 h
HCT116 [2] = details: 72 h
Method: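 HCT116 control and MTA1-KO (CRISPR) HCT116 cells were seeded in 384-well plates (800 cells/well), treated 16 h later with 237 metabolism-related anticancer drugs at five doses (10 uM, 2 uM, 400 nM, 80 nM, 16 nM) for 72 h, two replicates; viability by CCK8. Values are % inhibition of viability relative to untreated cells, plus fitted IC50.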

Structure (SMILES): O=C(O)[C@@]1(CCCCCCOc2ccc(Cl)cc2)CO1 [(R)-Etomoxir sodium salt]
- viability inhibition (HCT116 [1]; genotype: MTA1-KO, 16 nM): -11.4%
- viability inhibition (HCT116 [1]; genotype: MTA1-KO, 80 nM): -21.5%
- viability inhibition (HCT116 [1]; genotype: MTA1-KO, 400 nM): -17.4%
- viability inhibition (HCT116 [1]; genotype: MTA1-KO, 2000 nM): -13.9%
- viability inhibition (HCT116 [1]; genotype: MTA1-KO, 10000 nM): 37.6%
- viability inhibition (HCT116 [1]; genotype: control, 16 nM): 12.3%
- viability inhibition (HCT116 [1]; genotype: control, 80 nM): 19.7%
- viability inhibition (HCT116 [1]; genotype: control, 400 nM): 14.6%
- viability inhibition (HCT116 [1]; genotype: control, 2000 nM): 15.3%
- viability inhibition (HCT116 [1]; genotype: control, 10000 nM): 26.1%
- IC50 (HCT116 [2]; genotype: MTA1-KO): > 10 µM
- IC50 (HCT116 [2]; genotype: control): > 10 µM

Structure (SMILES): O=C(/C=C/c1ccc2ccccc2n1)c1ccncc1 [PFK015]
- viability inhibition (HCT116 [1]; genotype: MTA1-KO, 16 nM): -28%
- viability inhibition (HCT116 [1]; genotype: MTA1-KO, 80 nM): -23.8%
- viability inhibition (HCT116 [1]; genotype: MTA1-KO, 400 nM): -16.3%
- viability inhibition (HCT116 [1]; genotype: MTA1-KO, 2000 nM): -14%
- viability inhibition (HCT116 [1]; genotype: MTA1-KO, 10000 nM): 124%
- viability inhibition (HCT116 [1]; genotype: control, 16 nM): -7.66%
- viability inhibition (HCT116 [1]; genotype: control, 80 nM): -7.18%
- viability inhibition (HCT116 [1]; genotype: control, 400 nM): -5.47%
- viability inhibition (HCT116 [1]; genotype: control, 2000 nM): 34%
- viability inhibition (HCT116 [1]; genotype: control, 10000 nM): 124%
- IC50 (HCT116 [2]; genotype: MTA1-KO): 2.71 µM
- IC50 (HCT116 [2]; genotype: control): 2.17 µM

Structure (SMILES): CC(C)(CCCCCC(O)CCCCCC(C)(C)C(=O)O)C(=O)O [ETC1002]
- viability inhibition (HCT116 [1]; genotype: MTA1-KO, 16 nM): 2.14%
- viability inhibition (HCT116 [1]; genotype: MTA1-KO, 80 nM): -10.3%
- viability inhibition (HCT116 [1]; genotype: MTA1-KO, 400 nM): -6.64%
- viability inhibition (HCT116 [1]; genotype: MTA1-KO, 2000 nM): -17.1%
- viability inhibition (HCT116 [1]; genotype: MTA1-KO, 10000 nM): -9.91%
- viability inhibition (HCT116 [1]; genotype: control, 16 nM): 10.7%
- viability inhibition (HCT116 [1]; genotype: control, 80 nM): -0.834%
- viability inhibition (HCT116 [1]; genotype: control, 400 nM): -5.92%
- viability inhibition (HCT116 [1]; genotype: control, 2000 nM): -6.48%
- viability inhibition (HCT116 [1]; genotype: control, 10000 nM): -5.51%
- IC50 (HCT116 [2]; genotype: MTA1-KO): > 10 µM
- IC50 (HCT116 [2]; genotype: control): > 10 µM

Structure (SMILES): O=c1oc2ccccc2c(O)c1Cc1c(O)c2ccccc2oc1=O [Dicumarol]
- viability inhibition (HCT116 [1]; genotype: MTA1-KO, 16 nM): 4.75%
- viability inhibition (HCT116 [1]; genotype: MTA1-KO, 80 nM): 8.83%
- viability inhibition (HCT116 [1]; genotype: MTA1-KO, 400 nM): 21.4%
- viability inhibition (HCT116 [1]; genotype: MTA1-KO, 2000 nM): 67.8%
- viability inhibition (HCT116 [1]; genotype: MTA1-KO, 10000 nM): 64.3%
- viability inhibition (HCT116 [1]; genotype: control, 16 nM): 10.4%
- viability inhibition (HCT116 [1]; genotype: control, 80 nM): 23.6%
- viability inhibition (HCT116 [1]; genotype: control, 400 nM): 22.5%
- viability inhibition (HCT116 [1]; genotype: control, 2000 nM): 66.6%
- viability inhibition (HCT116 [1]; genotype: control, 10000 nM): 65.9%
- IC50 (HCT116 [2]; genotype: MTA1-KO): 0.444 µM
- IC50 (HCT116 [2]; genotype: control): 0.54 µM

Structure (SMILES): N[C@@H](CSCCB(O)O)C(=O)O [BEC HCl]
- viability inhibition (HCT116 [1]; genotype: MTA1-KO, 16 nM): 7.68%
- viability inhibition (HCT116 [1]; genotype: MTA1-KO, 80 nM): -6.82%
- viability inhibition (HCT116 [1]; genotype: MTA1-KO, 400 nM): -3.32%
- viability inhibition (HCT116 [1]; genotype: MTA1-KO, 2000 nM): 5.74%
- viability inhibition (HCT116 [1]; genotype: MTA1-KO, 10000 nM): 56.8%
- viability inhibition (HCT116 [1]; genotype: control, 16 nM): -17.3%
- viability inhibition (HCT116 [1]; genotype: control, 80 nM): -19%
- viability inhibition (HCT116 [1]; genotype: control, 400 nM): -3.82%
- viability inhibition (HCT116 [1]; genotype: control, 2000 nM): -14%
- viability inhibition (HCT116 [1]; genotype: control, 10000 nM): -7.11%
- IC50 (HCT116 [2]; genotype: MTA1-KO): 8.12 µM
- IC50 (HCT116 [2]; genotype: control): > 10 µM

Structure (SMILES): Cc1ccc(NC(=O)Nc2cc(-c3ccccc3-c3nn[nH]n3)ccc2N(CC(C)C)CC(C)C)cc1 [DO-IN-2]
- viability inhibition (HCT116 [1]; genotype: MTA1-KO, 16 nM): -2.66%
- viability inhibition (HCT116 [1]; genotype: MTA1-KO, 80 nM): 13.6%
- viability inhibition (HCT116 [1]; genotype: MTA1-KO, 400 nM): 7.91%
- viability inhibition (HCT116 [1]; genotype: MTA1-KO, 2000 nM): 10.9%
- viability inhibition (HCT116 [1]; genotype: MTA1-KO, 10000 nM): -6.41%
- viability inhibition (HCT116 [1]; genotype: control, 16 nM): 4.06%
- viability inhibition (HCT116 [1]; genotype: control, 80 nM): 0.568%
- viability inhibition (HCT116 [1]; genotype: control, 400 nM): -3.13%
- viability inhibition (HCT116 [1]; genotype: control, 2000 nM): -1.86%
- viability inhibition (HCT116 [1]; genotype: control, 10000 nM): 41.6%
- IC50 (HCT116 [2]; genotype: MTA1-KO): > 10 µM
- IC50 (HCT116 [2]; genotype: control): > 10 µM

Structure (SMILES): NS(=O)(=O)C#Cc1ccccc1 [Pifithrin-μ]
- viability inhibition (HCT116 [1]; genotype: MTA1-KO, 16 nM): -6.33%
- viability inhibition (HCT116 [1]; genotype: MTA1-KO, 80 nM): -6.69%
- viability inhibition (HCT116 [1]; genotype: MTA1-KO, 400 nM): -11.6%
- viability inhibition (HCT116 [1]; genotype: MTA1-KO, 2000 nM): -13.4%
- viability inhibition (HCT116 [1]; genotype: MTA1-KO, 10000 nM): -5.71%
- viability inhibition (HCT116 [1]; genotype: control, 16 nM): 12.9%
- viability inhibition (HCT116 [1]; genotype: control, 80 nM): -14.1%
- viability inhibition (HCT116 [1]; genotype: control, 400 nM): -16.5%
- viability inhibition (HCT116 [1]; genotype: control, 2000 nM): -18.1%
- viability inhibition (HCT116 [1]; genotype: control, 10000 nM): 20.2%
- IC50 (HCT116 [2]; genotype: MTA1-KO): > 10 µM
- IC50 (HCT116 [2]; genotype: control): > 10 µM

Structure (SMILES): CCC(=O)Nc1cccc(Oc2nc(Nc3ccc(N4CCN(C)CC4)cc3OC)ncc2Cl)c1 [WZ4003]
- viability inhibition (HCT116 [1]; genotype: MTA1-KO, 16 nM): -5.75%
- viability inhibition (HCT116 [1]; genotype: MTA1-KO, 80 nM): -20%
- viability inhibition (HCT116 [1]; genotype: MTA1-KO, 400 nM): -8%
- viability inhibition (HCT116 [1]; genotype: MTA1-KO, 2000 nM): -5.19%
- viability inhibition (HCT116 [1]; genotype: MTA1-KO, 10000 nM): 8.72%
- viability inhibition (HCT116 [1]; genotype: control, 16 nM): 8.56%
- viability inhibition (HCT116 [1]; genotype: control, 80 nM): -15.4%
- viability inhibition (HCT116 [1]; genotype: control, 400 nM): -4.38%
- viability inhibition (HCT116 [1]; genotype: control, 2000 nM): -7.1%
- viability inhibition (HCT116 [1]; genotype: control, 10000 nM): 12.2%
- IC50 (HCT116 [2]; genotype: MTA1-KO): > 10 µM
- IC50 (HCT116 [2]; genotype: control): > 10 µM

Structure (SMILES): Cc1ccccc1C(=O)N1CCc2cc(-c3nc(NC(=O)Cc4ccc5c(c4)OCO5)sc3C)ccc21 [ML385]
- viability inhibition (HCT116 [1]; genotype: MTA1-KO, 16 nM): 4.66%
- viability inhibition (HCT116 [1]; genotype: MTA1-KO, 80 nM): -3.65%
- viability inhibition (HCT116 [1]; genotype: MTA1-KO, 400 nM): -2.81%
- viability inhibition (HCT116 [1]; genotype: MTA1-KO, 2000 nM): 0.224%
- viability inhibition (HCT116 [1]; genotype: MTA1-KO, 10000 nM): 49.3%
- viability inhibition (HCT116 [1]; genotype: control, 16 nM): 3.74%
- viability inhibition (HCT116 [1]; genotype: control, 80 nM): -1.5%
- viability inhibition (HCT116 [1]; genotype: control, 400 nM): 2.66%
- viability inhibition (HCT116 [1]; genotype: control, 2000 nM): -0.526%
- viability inhibition (HCT116 [1]; genotype: control, 10000 nM): 29.4%
- IC50 (HCT116 [2]; genotype: MTA1-KO): > 10 µM
- IC50 (HCT116 [2]; genotype: control): > 10 µM

Structure (SMILES): C[C@]12CC[C@H](O)C[C@H]1CC[C@@H]1[C@@H]2CC[C@]2(C)[C@@H](c3ccc(=O)oc3)CC[C@]12O [Bufalin]
- viability inhibition (HCT116 [1]; genotype: MTA1-KO, 16 nM): 15.4%
- viability inhibition (HCT116 [1]; genotype: MTA1-KO, 80 nM): 39%
- viability inhibition (HCT116 [1]; genotype: MTA1-KO, 400 nM): 58.6%
- viability inhibition (HCT116 [1]; genotype: MTA1-KO, 2000 nM): 83.8%
- viability inhibition (HCT116 [1]; genotype: MTA1-KO, 10000 nM): 91%
- viability inhibition (HCT116 [1]; genotype: control, 16 nM): 65.7%
- viability inhibition (HCT116 [1]; genotype: control, 80 nM): 67.6%
- viability inhibition (HCT116 [1]; genotype: control, 400 nM): 69.3%
- viability inhibition (HCT116 [1]; genotype: control, 2000 nM): 77.6%
- viability inhibition (HCT116 [1]; genotype: control, 10000 nM): 80.9%
- IC50 (HCT116 [2]; genotype: MTA1-KO): 0.143 µM
- IC50 (HCT116 [2]; genotype: control): < 0.016 µM

Structure (SMILES): O=C(O)CCCCC(CCSCc1ccccc1)SCc1ccccc1 (configuration not stated) [CPI613]
- viability inhibition (HCT116 [1]; genotype: MTA1-KO, 16 nM): -15.7%
- viability inhibition (HCT116 [1]; genotype: MTA1-KO, 80 nM): -15.1%
- viability inhibition (HCT116 [1]; genotype: MTA1-KO, 400 nM): -22.2%
- viability inhibition (HCT116 [1]; genotype: MTA1-KO, 2000 nM): -25.4%
- viability inhibition (HCT116 [1]; genotype: MTA1-KO, 10000 nM): -7.62%
- viability inhibition (HCT116 [1]; genotype: control, 16 nM): 7.59%
- viability inhibition (HCT116 [1]; genotype: control, 80 nM): -3.09%
- viability inhibition (HCT116 [1]; genotype: control, 400 nM): -6.23%
- viability inhibition (HCT116 [1]; genotype: control, 2000 nM): -6.02%
- viability inhibition (HCT116 [1]; genotype: control, 10000 nM): 8.56%
- IC50 (HCT116 [2]; genotype: MTA1-KO): > 10 µM
- IC50 (HCT116 [2]; genotype: control): > 10 µM
